Consider ten compounds from patent US20240308984A1, “Jak Inhibitor With High Oral Bioavailability” (TECHNODERMA MEDICINES INC, priority 2021, published 2024).

For orientation: Cmax means the peak of the concentration-time curve.

The data set can be described thus: Oral PK in rats, single oral dose, plasma concentration by LC-MS/MS. Type of data set: in vivo, Sprague Dawley (SD) rats. The note with it: SD rats, single oral gavage 5 mg/kg, n=3; for Cmax: 1 mg/mL solution in DMA:30% Solutol HS 15:Saline 10:10:80, plasma; for AUC0-t: sampling up to 24 hours, plasma. The method, then: Biological Description of Oral PK in Rats:
In brief, the compounds were prepared in a solvent [DMA: 30% Solutol HS 15: Saline=10:10:80 (v/v/v)] to form clear solution formulations having a concentration of 1 mg/mL. Each test compound was administered to 3 rats (n=3) in single oral gavage (5 mg/kg). Approximately 150 μL of whole blood was taken from a subclavian vein of each experimental rat before administration and at 0.25, 0.5, 1, 2, 4, 8, 12, and 24 hours after administration, respectively, and was collected into an Eppendorf tube containing EDTA-K2, then 100 μL of the whole blood was added to an Eppendorf tube containing 300 μL of cyanomethane (ACN), mixed and then centrifuged to separate the plasma, and after it was ensured that there was no hemolysis in the samples, the plasma samples were stored in a freezer at −90° C. to −60° C. for analyses of drug concentrations in the samples via LC-MS/MS.
Concentrations of compounds in the plasma samples were tested and analyzed via LC-MS/MS system (API4000: LC-MS-MS-001), 10 μL of the sample was mixed with 100 μL of ACN containing a standard, then 110 μL of water was added and the mixture was oscillated, and finally, 2 μL of the mixed solution was injected into the LC-MS/MS system.

Where [1] appears, read: Sprague-Dawley, rat, read-out: Cmax.
[2] abbreviates: Sprague-Dawley, rat, read-out: AUC0-t.

Read-outs that look alike come from different tables or passages of the source.

Turning to `CCNC(=O)c1ccc(Nc2nccc(-c3ccc(NC(=O)[C@@H]4CC4(F)F)cc3)n2)cc1` [Comparative Example 5], the peak concentration (Cmax) was determined as 16.5 ng/mL and the AUC0-t worked out at 141 ng·h/mL.
`CCNC(=O)c1ccc(Nc2nccc(-c3ccc(N(COC(=O)C(C)(C)C)C(=O)C4CC4(F)F)cc3)n2)cc1C` (stereo not drawn) [Example 4]: under setting [1], the Cmax is 635 ng/mL. Also, under setting [2], the AUC0-t was determined as 3090 ng·h/mL.
Compound `Cn1cc(Nc2nccc(-c3ccc(NS(=O)(=O)Cc4cccc(F)c4)cc3)n2)cn1` [Comparative Example 3] displayed an AUC0-t of 381 ng·h/mL.
For the compound `Cn1cc(Nc2nccc(-c3ccc(NC(=O)[C@@H]4CC4(F)F)nc3)n2)cn1` [Comparative Example 1, (S)-2,2-difluoro-N-(5-(2-((1-methyl-1H-pyrazol-4-yl)amino)pyrimidin-4-yl)pyridin-2-yl)cycloprop-ane-1-carboxamide], the Cmax under setting [1] was determined as 116 ng/mL. Further, under setting [2], the AUC0-t came out at 891 ng·h/mL.
On the same counts, the results for `Cn1cc(Nc2nccc(-c3ccc(N(COC(=O)C(C)(C)C)S(=O)(=O)Cc4cccc(C#N)c4)cc3)n2)cn1` [Example 2, (41-(3-cyanophenyl)-N-(4-(2-(((1-methyl-1H-pyrazol-4-yl)amino)pyrimidin-4-yl)phenyl)methyl)sulfonamido)methyl pivalate] are 791 ng/mL and 1580 ng·h/mL.
`CCNC(=O)c1ccc(Nc2nccc(-c3ccc(N(COC(=O)C(C)(C)C)C(=O)C4CC4(F)F)cc3)n2)cc1` (stereo not drawn) [Example 5]: under setting [1], the Cmax is 689 ng/mL. Also, the AUC0-t under setting [2] stood at 2710 ng·h/mL.
`CCNC(=O)c1ccc(Nc2nccc(-c3ccc(NC(=O)[C@@H]4CC4(F)F)cc3)n2)cc1C` [Comparative Example 4] displayed a peak concentration (Cmax) of 5.02 ng/mL and an AUC0-t of 30.7 ng·h/mL.
For the compound `Cn1cc(Nc2nccc(-c3ccc(N(COC(=O)C(C)(C)C)S(=O)(=O)Cc4cccc(F)c4)cc3)n2)cn1` [Example 3], under setting [1], the Cmax was determined as 1860 ng/mL. The AUC0-t under setting [2] turned out to be 2890 ng·h/mL.
The compound `Cn1cc(Nc2nccc(-c3ccc(NS(=O)(=O)Cc4cccc(C#N)c4)cc3)n2)cn1` [Comparative Example 2] displayed a Cmax of 20.2 ng/mL and an AUC0-t of 47.4 ng·h/mL.
As to `Cn1cc(Nc2nccc(-c3ccc(N(COC(=O)C(C)(C)C)C(=O)[C@@H]4CC4(F)F)nc3)n2)cn1` [Example 1, (S)-(2,2-difluoro-N-(5-(2-(((1-methyl-1H-pyrazol-4-yl)amino)pyrimidin-4-yl)pyridin-2-yl)cyclopropane-1-carboxamido)methyl pivalate], the AUC0-t came out at 1670 ng·h/mL.
